“And” between values parts separate entries of the source, which are not always exact repeats. Equal entries are not always repeated.
Assays:
S2 cells [1] = assay: Reduced representation paired-end sequencing assay for genome rearrangements in bleomycin-treated cells; type: cell-based, Drosophila melanogaster; details: bleomycin-treated S2 cells as compared to untreated cells
Protocol: Genomic DNA from cultured mouse (embryonic fibroblasts; MEFs) and fly (Drosophila melanogaster embryo cell line; S2) cells was analyzed by paired-end (“PE”) sequencing after a restriction enzyme digestion (HindIII for mouse and PstI for fly) and size selection. The fly and mouse genomes are structured very differently, with the mouse genome consisting of close to 50% repetitive DNA and the fly genome only 3%. The libraries were sequenced using a paired-end kit on the Illumina® Genome Analyzer fix with a read length of 85 bp. […] Alterations in the distance between two PE reads relative to the distance predicted by the RefSeq indicate putative genome rearrangements. […] First, any read pairs that had mapping quality scores lower than 30 (e.g. see Li H, Ruan J, Durbin R. (2008) Mapping short DNA sequencing reads and calling variants using mapping quality scores. Genome Research 18:1851-1858, hereby incorporated by reference in its entirety, for mapping scores) were filtered out. This removed repeat-spanning reads with ambiguous placement on the reference genome. […]
It was reasoned that treatment of S2 cells with a clastogen should give rise to elevated frequencies of genome rearrangements. […] The frequencies of genome rearrangements were expressed per read pair. […]

S2 cells [2] = assay: Single cell whole genome sequencing for somatic point mutations after ENU treatment; type: cell-based, Drosophila melanogaster
Protocol: To assess somatic mutation spectra in single cells in a genome-wide manner S2 cells derived from Drosophila melanogaster, an organism with a genome size of 160 MB, were used. The strategy followed is outlined in FIG. 1B. Individual single cells were picked from an S2 cell culture 72-h after treatment with 4.2 mM of the powerful point mutagen N-ethyl-N-nitrosourea (ENU) or mock treated with solvent (control). At 72-h post-treatment virtually no lesions remain (6,7) and cell survival is greater than 90% (8) (results not shown). Each single cell was lysed and subjected to whole genome amplification (WGA) using an optimized multiple displacement amplification (MDA) protocol (see Methods and Materials)(9). The amplified cells were first screened for locus dropout by qPCR using primer pairs distributed over the different chromosomes (FIG. 5). DNA from the cells displaying the least amount of dropout was fragmented and processed to generate sequencing libraries for the Illumina HiSeq platform. In this way libraries of three untreated and three ENU-treated cells were prepared. For comparison, a similar library was made from unamplified total genomic DNA from the untreated S2 cell population. To identify all possible mutations, either spontaneously formed in the unexposed, control cells or induced by ENU in the treated cells, the libraries were sequenced from both ends, generating between 50-100 million 108-bp paired-end reads per cell. Alignment to the Drosophila reference sequence (dm3) was performed using BWA (10), and post-processing was completed using the Genome Analysis Toolkit (GATK) (11). […] Since ENU is a point mutagen the subsequent analysis was based on this type of mutations only. The pipeline developed for somatic point mutation discovery is described in further detail in the Methods and Materials section. Briefly, aligned sequence data from the unamplified sample and a single cell was compared and all differences with the reference sequence were recorded as variants. Variants with sufficient coverage (20×) in both the unamplified and the single cell sample were classified as “germline” or “somatic” based on whether the variant was shared between the two samples. Somatic variants were further processed using a strand-bias filter and were visually validated using the Integrative Genomics Viewer (IGV) (12).
Single cells were collected under an inverted microscope by hand-held capillaries, deposited in PCR tubes along with 2 μl of culture medium, and immediately frozen on dry ice. […] The reaction products were purified using AMPure XP magnetic beads (Agencourt, Beverly, Mass.) and the reaction yield was measured using the NanoDrop 1000 spectrophotometer (Nanodrop Technologies LLC, Wilmington, Del.). […]

[3] = tested on: mouse embryonic fibroblast (MEF); assay: Single cell reduced representation (MseI) sequencing for somatic point mutations after ENU treatment; type: cell-based
Protocol: Therefore, the procedure shown in FIG. 1B was slightly modified, using a reduced representation approach based on restriction enzyme digestion. For this purpose mouse embryonic fibroblast (MEF) populations were used either treated with 4.2 mM ENU or mock-treated with solvent only. Instead of preparing sequencing libraries directly using randomly fragmented DNA, whole genome amplified DNA was digested from two treated and two control MEFs, as well as unamplified genomic DNA from the MEF population, with MseI, a four-base cutter with a TTAA cleavage site. Following digestion an agarose gel size-selection was performed for fragments between 250-bp and 350-bp, corresponding to a target region of approximately 300 MB. The fragments were sequenced using 121-bp single-end reads. […] Due to the nature of the reduced representation library, the strand bias filter could not be used and therefore a more stringent mutant read frequency cutoff (>40%) was adopted. Out of the 300-MB target region, 220 MB (73%) had sufficient coverage (10×) in the unamplified control sample and 85-93 MB (39-42%) of the 220 MB overlapped with regions of sufficient coverage in the single MEFs. Due to the absence of a sufficient number of heterozygous SNPs in the MEF cell line, allele dropout was estimated using the distribution of mutant read frequencies found in the ENU-treated MEF cells.
Single cells were collected under an inverted microscope by hand-held capillaries, deposited in PCR tubes along with 2 μl of culture medium, and immediately frozen on dry ice. Cells were lysed and amplified using the REPLI-g UltraFast Mini kit (Qiagen, Santa Clara, Calif.) according to the manufacturer's instructions, but using an initial 30-min amplification at 30° C. followed by an 18-hour amplification at 35° C. The reaction products were purified using AMPure XP magnetic beads (Agencourt, Beverly, Mass.) and the reaction yield was measured using the NanoDrop 1000 spectrophotometer (Nanodrop Technologies LLC, Wilmington, Del.). Reactions with yield of greater than 1 μg were tested for locus dropout at eight loci using comparative Ct measurements from real-time PCR (StepOne Plus, Applied Biosystems, Foster City, Calif.) performed with Fast SYBR® Green Master Mix (Foster City, Calif.). Up to 5 μg of DNA from samples displaying the least biased amplification was used as input for Illumina libraries. DNA was either randomly fragmented (S2 cells) or digested (MEFs) with 50 U of Msei (NEB, Ipswich, Mass.). Digested DNA (MEFs) was end-repaired using Mung Bean Nuclease (NEB, Ipswich, Mass.) and then used as input for the Illumina library preparation. S2 libraries were size-selected to 475-525-bp and MEF libraries were size selected to 250-350-bp using agarose gel electrophoresis. […] The aligned sequence data was processed using genome analysis toolkit (GATK) (e.g., available at www.broadinstitute.org) to realign reads containing indels or a high entropy of mismatches, recalibrate the base quality scores, and to compute coverage data and statistics. Somatic point mutations and germline variation were scored using a pipeline composed of SAMtools mpileup command (e.g., available at samtools.sourceforge.net/mpileup.shtml), VarScan somatic command (e.g., available at varscan.sourceforge.net/somatic-calling.html) and a custom script to parse and filter the VarScan output. Somatic events found in multiple single cells were discarded, as were events found in at least one read in the unamplified control sample. […]

S2 cells [4] = assay: Cell survival after ENU treatment; type: cell-based, Drosophila melanogaster; details: 72-h post-treatment, 4.2 mM ENU
Protocol: To assess somatic mutation spectra in single cells in a genome-wide manner S2 cells derived from Drosophila melanogaster, an organism with a genome size of 160 MB, were used. The strategy followed is outlined in FIG. 1B. Individual single cells were picked from an S2 cell culture 72-h after treatment with 4.2 mM of the powerful point mutagen N-ethyl-N-nitrosourea (ENU) or mock treated with solvent (control). At 72-h post-treatment virtually no lesions remain (6,7) and cell survival is greater than 90% (8) (results not shown). Each single cell was lysed and subjected to whole genome amplification (WGA) using an optimized multiple displacement amplification (MDA) protocol (see Methods and Materials)(9). The amplified cells were first screened for locus dropout by qPCR using primer pairs distributed over the different chromosomes (FIG. 5). […] To identify all possible mutations, either spontaneously formed in the unexposed, control cells or induced by ENU in the treated cells, the libraries were sequenced from both ends, generating between 50-100 million 108-bp paired-end reads per cell. […] Briefly, aligned sequence data from the unamplified sample and a single cell was compared and all differences with the reference sequence were recorded as variants. […]

[5] = single S2 cell, 72-h after treatment with 4.2 mM ENU
[6] = single MEF, treated with 4.2 mM ENU

Compound: bleomycin
- increase in genomic mutation frequency (genome rearrangements per read pair) (S2 cells [1]): approximately 3 fold

Compound: CCN(N=O)C(N)=O [ENU, N-ethyl-N-nitrosourea]
- majority of the ENU-induced mutations (mutation spectrum) (S2 cells [2]; S2 cells): T->A, T->C and G->A mutations
- induction of point mutations (S2 cells [2]; on average in the exposed S2 cells vs control cells): 7.5 fold
- Mutations per Mb (S2 cells [2]; [5]): 3.27 and 2.54 and 3.18
- Point mutations (S2 cells [2]; [5]): 938 and 482 and 690
- induction of point mutations ([3]; ENU-treated MEF cells vs control MEFs): 35 fold
- majority of the ENU-induced mutations (mutation spectrum) ([3]; MEF cells): T->A, T->C and G->A mutations
- ENU-induced mutation frequency in MEF cells, higher than that found in the S2 cells ([3]; mutations per MB, MEF vs S2): 30%
- Mutations per Mb [3, 6]: 3.97 and 3.91
- Point mutations [3, 6]: 426 and 446
- cell survival (S2 cells [4]): greater than 90%
